Test results published in patent US20040023884A1, “Biologically active peptides from functional domains of bactericidal/permeability-increasing protein and uses thereof” (priority 1993, published 2004).
Ends that are not written are not given here.

Tests used:
[1] = LPS binding by tryptophan fluorescence quenching
Excerpt: (§1) The naturally-occurring amino acid tryptophan can emit light (i.e., it fluoresces) having a wavelength between 300 and 400 nm after excitation with light having a wavelength of between about 280 nm and 290 nm, preferably 285 nm. The amount of emitted light produced by such fluorescence is known to be affected by the local environment, including pH and buffer conditions, as well as binding interactions between proteins and other molecules. Some BPI functional domain peptides derived from domains II and III contain tryptophan residues, and tryptophan fluorescence was used to assay binding interactions between the BPI functional domain peptides of the invention and LPS or heparin.
(§2) Tryptophan fluorescence of the BPI functional domain peptides of the invention was determined in the presence or absence of LPS or heparin using a SPEX Fluorolog fluorimeter. Samples were excited with 285 nm light using a 0.25 nm slitwidth. Emission wavelengths were scanned between 300-400 nm using a 1.25 nm slitwidth. Data were accumulated as the average of three determinations performed over an approximately 5 min time span. Samples were maintained at 25° C. or 37° C. during the course of the experiments using a circulating water bath. Crab endotoxin binding protein (CEBP), a protein wherein the intrinsic fluorescence of tryptophan residues is affected by binding to LPS, was used as a positive control. (See Wainwright et al., 1990, Cellular and Molecular Aspects of Endotoxin Reactions, Nowotny et al., eds., Elsevier Science Publishing B.V., The Netherlands, pp. 315-325).
(§3) Kd values were determined by Scatchard-type Stern-Volmer plots of the quenching data as the negative inverse of the slope of such plots. Comparing the data for BPI.10, BPI.46 and BPI.47, it is seen that as the Kd decreased (indicating an increase in avidity for LPS), the percent fluorescence quenching increased. The differences between these peptides include replacement of basic and polar amino acid residues with non-polar residues in […] as compared with BPI.10. In contrast, as the Kd of heparin binding decreased, a corresponding increase in the percentage of fluorescence quenching was not detected.

[2] = Heparin binding by tryptophan fluorescence quenching
Excerpt: as §1, §2, §3

[3] = tested on: multi-resistant strain E. coli 19536; experiment: Radial diffusion bactericidal assay, multi-antibiotic resistant E. coli 19536; assay type: cell-based
Method: These studies were conducted substantially following the procedures used in Example 2.
In order to test the bactericidal activity of BPI peptides against multi-antibiotic resistant E. coli, a multi-resistant strain E. coli 19536 (ampR 16 μg/mL; ceftazidimeR>16 μg/mL; ceftriazoneR>16 μg/mL) was tested. This strain is a clinical isolate obtained from the Baxter Microscan® library (Sacramento, Calif.). An overnight culture of E. coli 19536 was tested as described in Example 2 and part A above. Test BPI peptides were 2-fold serially diluted in D-PBS starting at about 1 mg/mL.

[4] = tested on: Salmonella typhurium; experiment: Radial diffusion bactericidal assay, Salmonella typhurium; assay type: cell-based; conditions: FIG. 11h
[5] = tested on: E. coli 86a:K61; experiment: Bactericidal assay performed in human serum, E. coli O86a:K61; assay type: cell-based; conditions: FIG. 11l
Excerpt: FIG. 11l is a graph showing the results of BPI functional domain peptide BPI.30 in bactericidal assays performed in human serum;

[6] = tested on: E. coli O4:K12; experiment: Broth bactericidal assay, E. coli O4:K12; assay type: cell-based; conditions: FIG. 11k

Substance	Quenching LPS [1] [%]	Kd ([1]; Stern-Volmer plots) [nM]	Quenching Heparin [2] [%]	Kd ([2]; Stern-Volmer plots) [nM]	bactericidal activity (in words) [3]	bactericidal activity (in words) [4]	bactericidal activity (in words) [5]	bactericidal activity (in words) [6]
KWKAAARFLKKWKAAARFLK [BPI.48]	62	83	41	800	activity against multi-antibiotic resistant E. coli			
KWKAQKRFLKKSKVGWLIQLFHKK-NH2 (C-terminus assumed) [BPI.30]						showed bactericidal activity	showed bactericidal activity	showed bactericidal activity
